The values that follow come from patent US9205073B2, “Method for treating virus infection using derivative of aniline” (CHINA MEDICAL UNIVERSITY, priority 2014, dated 2015).

In assay [1] the test system is JEV T1P1. The assay can be described thus: Viral plaque test, JEV T1P1 replication in TE671 cells. In kind it is cell-based, Japanese encephalitis virus. The settings on record: treated for 36 or 48 hours. The procedure: BHK-21 cells and/or TE671cells were separately cultured in a 24-well culture plate, with an initial density of 3×10^4 per well, and with 1 ml of 2% FBS-containing MEM medium per well. The cells were incubated in an incubator (37° C., 5% CO2) overnight, and the medium was removed until the cells adhered to the plate. Then, fresh 2% FBS-containing MEM medium was simultaneously added into each well of the culture plate. The cells were infected with a JEV T1P1 virus strain, wherein the amount of JEV T1P1 used to infect BHK-21 cells was a multiplicity of infection (M.O.I.)=0.1, and the amount of JEV T1P1 used to infect TE671 cells was M.O.I.=0.05. Different concentrations of compound 1 (final concentrations were 0, 2.5, 25 and 125 μM, respectively) were added into different wells. The culture plate was placed into an incubator (37° C., 5% CO2) and maintained therein. […]
BHK-21 cells were cultured in a 6-well culture plate at an initial density of 3×10^5 per well with 2 ml of 2% FBS-containing MEM medium per well. […] The cells were washed with clear water, and then the viral plaques were counted to calculate the virus titer.

Assay [2] concerns EV71. The experiment in a line: Enterovirus replication, plaque test in RD cells. Type of assay: cell-based, enterovirus type 71. As to conditions: Enterovirus A, 36 h, read-out: inhibitory rate of EV 71 replication. The procedure: The RD cells were cultured in a 24-well culture plate with an initial density of 3×10^4 per well, as well as with 1 ml of 2% FBS-containing MEM medium per well. The cells were incubated in an incubator (37° C., 5% CO2) overnight. The medium was removed, and then, 1 ml of fresh 2% FBS-containing MEM medium was simultaneously added into each well. The RD cells were infected with an EV71 virus strain (M.O.I.=0.1). Different concentrations of compound 1 (final concentrations were 0, 2.5, 25 and 125 μM) were added into different wells respectively. RD cells were incubated in an incubator (37° C., 5% CO2) for 36 hours, and then the viral medium was collected for the following plaque test.
The RD cells were cultured in a 6-well culture plate, and incubated in an incubator (37° C., 5% CO2) overnight. The medium was removed, and then 200 μl of the above 10^4 times diluted viral medium was added into each well. The cells were infected for 1 hour. Then, 3 ml of a 3% agarose covering solution was added into each well. The cells were incubated in an incubator (37° C., 5% CO2) for 3 days. The covering solution was removed. Methyl blue was added into each well, and the plate was placed at room temperature overnight, and then washed with clear water, and dried. The number of plaques was counted to calculate the virus titer and inhibitory rate.

Structures are written as SMILES.

Take `CCOC(=O)C1=C(Nc2cc(C)cc(C)c2)OCC1=O` [Compound 1, ethyl 2-(3′,5′-dimethylanilino)-4-oxo-4,5-dihydrofuran-3-carboxylate]: the “replication of JEV T1P1 (virus titer)” value in assay [1] was “significantly decreased”. In assay [2], the inhibition at 2.5 µM was 4.6%, the inhibition at 25 µM came to 23% and the inhibition at 125 µM turned out to be 24.6%.
